# Assay results published in PMC9756341 (Journal of the American Chemical Society, 2022).
# How the values were obtained:
# [1] = test system: KLK6; assay: Enzyme kinetics to calculate kobs/I, KLK6; type: biochemical, human; conditions: KLK6 1.5 nM, fluorogenic substrate 22 5 µM, 50 mM Tris 150 mM NaCl 1 mM EDTA 0.05% Tween20 pH 7.5, room temperature, read every 30 s for 30 min, ex/em 380/440 nm, pseudo first order kinetics, corrected by (1 + [S]/KM), triplicates
# [2] = target: T1, KLK8 (Homo sapiens, UniProt O60259); assay: Enzyme kinetics to calculate kobs/I, KLK8; type: biochemical; conditions: KLK8 1 nM, Boc-VPR-AMC 30 µM, 100 mM Na2PO4 0.01% Tween20 pH 8.5, room temperature, 30 min, pseudo first order kinetics, triplicates
# T1 construct: Active recombinant FGFBP1 (Code 1593-FB), HSPG2 (Code 2364-ER), uPA (Code 1310-SE), tPA (Code 7449-SE) and KLK8 (Code 2025-SE) were obtained from BioTechne; purchased BioTechne 2025-SE
# T1 sequence (O60259 33-260): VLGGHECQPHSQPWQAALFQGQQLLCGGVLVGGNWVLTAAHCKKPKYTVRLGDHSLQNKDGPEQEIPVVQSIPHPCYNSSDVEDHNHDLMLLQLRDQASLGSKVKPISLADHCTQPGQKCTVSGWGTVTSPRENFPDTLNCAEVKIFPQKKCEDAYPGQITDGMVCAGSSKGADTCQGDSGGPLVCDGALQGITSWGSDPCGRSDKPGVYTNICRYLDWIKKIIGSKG
# [3] = test system: Capan-2 cells; conditions: 0.13 to 2 μM, Incucyte live cell imaging every 4 h for 5 days, serum-free DMEM
# Description: Incucyte assays for proliferation and toxicity
# Proliferation was quantified using the Incucyte software by measuring percentage confluency. Sytox
# green was used as a marker for cell death. Cell death was quantified by measuring total green
# fluorescence of each well.
# Incucyte (proliferation and toxicity) assays. Capan-2 cells were seeded in a sterile 96 well plate
# (10,000 cells per well). The outermost wells were left empty to mitigate edge effects. Cells were grown
# in growth media (10% FBS) overnight to adhere. The next day, the media was replaced with serum-free
# DMEM (117 µL) containing Sytox green (250 nM) or a DMSO control.
# [4] = test system: BxPC-3 cells; conditions: BxPC-3 cells (no active KLK6), 2 μM, 24 h, relative to DMSO
# Description: (§1) Next, the effect of KLK6 inhibition on migration and invasion of Capan-2 cells was assessed using a Boyden chamber assay.
# (§2) (13 µL per condition). Control conditions included puromycin (100 µg/mL), DMSO only, Sytox green only or DMSO + Sytox green. The final inhibitor concentrations ranged from 2 µM to 125 nM. The cells were placed into an Incucyte with the incubator set at 37 °C and 5% CO2. Phase and green fluorescence were analysed every 4 h for 5 days.
# (§3) Invasion/migration assays. Cell invasion was measured using Corning Fluoroblok inserts following a modified procedure11. Fluoroblok inserts were placed into the wells of a 24-well plate. Matrigel was suspended to 300 µg/mL in coating buffer (0.01M Tris, 0.7% NaCl, pH 8). The matrigel suspension (100 µL) was added into the Fluoroblok insert and the plate was left at 37 °C for 2 h. A migration control (with no matrigel) was also included. Cells were trypsinised and resuspended in serum-free DMEM.
# (§4) The leftover buffer in the chambers was decanted and 500 µL of cells (100,000 per well) were seeded into the apical chamber of the insert. DMEM with 10% FBS (750 µL) was added into the basal chamber as a chemoattractant. The plate was incubated at 37 °C and 5% CO2 for 24 h. The chambers were removed and placed into a new 24-well plate containing 50 µM of CellTracker CMHC dye in HBSS. The cells were stained for 0.5 h and the chamber was removed and placed into the previous plate containing DMEM with 10% FBS. The cells were imaged for blue fluorescence (ex/em = 375/460) using a Celena S inverted fluorescence microscope. Percentage invasion was calculated by quantifying the cell area
# [5] = test system: Capan-2 cells; conditions: Capan-2 cells (active KLK6), 2 μM, 24 h, relative to DMSO
# Description: as §1, §2, §3, §4
# [6] = test system: endogenous active KLK6; conditions: Capan-2 conditioned media, streptavidin pulldown, KLK6 western blot
# Description: Conditioned media was incubated with bABP 17 (10 μM) or DMSO for 2 h, and labeled proteins enriched on magnetic streptavidin-loaded beads, eluted, and analyzed by western blot against a KLK6 antibody.
# Cell culture. Cells were cultured in their recommended culture media supplemented with 10% (v/v)
# foetal bovine serum at 37 °C and 5% CO2.
# Preparation of conditioned media. Cells were grown in standard growth media to 80% confluency in
# a T175 flask. The medium was removed, and the cells were washed with serum-free, phenol-red free
# RPMI. The cells were incubated with the same RPMI for 2 h. The medium was replaced once again
# with serum-free, phenol-red free RPMI and the cells were incubated for 48 h. The condition medium
# was collected and filtered through a 0.2 µm syringe filter. The medium was concentrated (25 mL to
# 0.75 mL) using a 3 kDa Mw cutoff spin filter to a final concentration of around 1 mg/mL. The protein
# concentration was measured using a BioRad DCTM protein assay.
# Pulldown experiments (western blot). Conditioned media was diluted with PBS to exactly 1 mg/mL.
# 200 µg of total protein was used per condition. The ABP or DMSO was added at a 1:100 dilution and
# the samples were shaken at RT for 1 h. The proteins were precipitated using the MeOH/H2O/CHCl3
# method. The pellet was washed twice with MeOH and dried in air for 5 min. The protein was
# resuspended in 2% SDS in PBS to a concentration of 10 mg/mL. PBS was added to gradually dilute
# the protein back to 1 mg/mL and the samples were centrifuged (17,000 g, 5 min). 5 µg of protein was
# set aside as the “before pulldown” samples. Magnetic streptavidin beads were washed three times with
# PBS. The rest of the protein was added into the beads and shaken at RT for 2 h. 5 µg of the supernatant
# was set aside for analysis, while the rest was discarded. The beads were washed three times with 1%
# SDS in PBS. […]
# were boiled at 95 °C for 5 min. The proteins were analysed via SDS-PAGE and western blot analysis. […]
# 10 min, followed by 180 V for 60 min. Gels were then taken for western blot or in-gel fluorescence. […]
# [7] = test system: KLK6; assay: Enzyme kinetics to calculate KM, KLK6; type: biochemical, human; conditions: fluorogenic substrate, KLK6 1.5 nM, 2% DMSO, room temperature, 30 min, Michaelis-Menten model, triplicates
# Description: (§5) Reagents were obtained from VWR, Sigma Aldrich, Sartorius, Fluorochem, AGTC, Novabiochem, TCI, Alfa Aesar, Iris Biotech, Thermofisher and Bachem. […]
# (§6) (Code 7449-SE) and KLK8 (Code 2025-SE) were obtained from BioTechne. KLK6 was obtained from the group of Aubry Miller (DKFZ) and KLK7 was obtained from the group of Judith Clements (QUT).
# The manufacturer’s recommended buffers were used with uPA and tPA but not KLK8. The KLK6 assay buffer was as follows: 50 mM Tris 150 mM NaCl, 1 mM EDTA, 0.05% Tween20, pH 7.5. The KLK7/8 buffer was as follows: 100 mM Na2PO4, 0.01% Tween20, pH 8.5. Fluorescence measurements were measured using an Envision plate reader. Fluorescence data was processed using Graphpad Prism 8. […]
# (§7) 2-chlorotrityl chloride resin. […]
# (§8) 380nm/440nm. The data was analysed using Graphpad Prism 8. The initial slopes of each plot were calculated and presented in a bar chart, which represents the substrate specificity of the KLK. […]
# (§9) Enzyme kinetics to calculate KM. Purified fluorogenic substrates were measured in triplicates. […]
# (§10) temperature, fluorescence was read once every 30 s for 30 min from an Envision plate reader at excitation/emission wavelengths of 380nm/440nm. The data was analysed with Graphpad Prism 8, using the Michaelis-Menten model.
# (§11) Enzyme kinetics to calculate kobs/I. All ABPs and inhibitors were measured in triplicates. […]
# [8] = target: T2, tPA (Homo sapiens, UniProt P00750); assay: Enzyme kinetics to calculate KM, tPA; type: biochemical; conditions: fluorogenic substrate, tPA 2 nM, 2% DMSO, room temperature, 30 min, Michaelis-Menten model, triplicates
# T2 construct: purchased BioTechne 7449-SE
# T2 sequence (P00750 36-562): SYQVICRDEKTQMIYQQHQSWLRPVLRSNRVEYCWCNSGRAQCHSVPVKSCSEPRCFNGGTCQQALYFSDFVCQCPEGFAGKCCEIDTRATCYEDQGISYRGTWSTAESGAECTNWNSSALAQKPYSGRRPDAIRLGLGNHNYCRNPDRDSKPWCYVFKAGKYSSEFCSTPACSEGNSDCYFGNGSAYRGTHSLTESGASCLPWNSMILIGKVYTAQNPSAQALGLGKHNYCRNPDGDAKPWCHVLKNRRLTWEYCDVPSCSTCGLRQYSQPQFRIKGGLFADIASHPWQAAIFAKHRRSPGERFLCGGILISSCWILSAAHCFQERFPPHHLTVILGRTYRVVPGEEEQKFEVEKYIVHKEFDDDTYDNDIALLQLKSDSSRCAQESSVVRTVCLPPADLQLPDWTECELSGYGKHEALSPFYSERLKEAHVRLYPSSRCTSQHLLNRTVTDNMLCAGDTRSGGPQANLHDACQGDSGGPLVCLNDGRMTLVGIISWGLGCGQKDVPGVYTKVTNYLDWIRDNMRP
# Description: as §5, §6
# The manufacturer’s recommended buffers were used with uPA and tPA but not KLK8. […]
# (§12) Fluorescence measurements were measured using an Envision plate reader. Fluorescence data was processed using Graphpad Prism 8. […]
# as §7
# 380nm/440nm. The data was analysed using Graphpad Prism 8. The initial slopes of each plot were calculated and presented in a bar chart, which represents the substrate specificity of the KLK. Error bars represent the standard deviation between the three replicates.
# as §9, §10, §11
# using a pseudo first order kinetics model. The observed rate of inhibition (kobs) was calculated by plotting a one-phase association. […]
# [9] = target: T3, uPA (Homo sapiens, UniProt P00749); assay: Enzyme kinetics to calculate KM, uPA; type: biochemical; conditions: fluorogenic substrate, uPA 2 nM, 2% DMSO, room temperature, 30 min, Michaelis-Menten model, triplicates
# T3 construct: purchased BioTechne 1310-SE
# Description: Reagents were obtained from VWR, Sigma Aldrich, Sartorius, Fluorochem, AGTC, Novabiochem, TCI, Alfa Aesar, Iris Biotech, Thermofisher and Bachem. 1H and 13C NMR spectra were measured on 400 MHz Bruker AV instruments. Cells were obtained directly from the ATCC. A Waters LC-MS system (2767 sample manager, 2998 UV detector and 3100 mass detector) was used for the analysis and purification of peptides. The analytical column was an Xbridge C18 4.6 mm x 100 mm. The preparative column used to purify the peptides was an Xbridge C18 19 mm x 100 mm. For analytical LC-MS, the flow rate was 1.2 mL/min, while preparative runs were at 20 mL/min. […]
# All solvents contained an additive (0.1% formic acid). High resolution mass was recorded on a Micromass Autospec Premier through the Imperial College London mass spectrometry services. […]
# as §12
# Peptides were prepared using standard fluorenylmethoxycarbonyl (Fmoc) solid phase peptide synthesis. Reactions were monitored using the ninhydrin test. […]
# as §8, §9
# [10] = Fluoroblok insert without Matrigel
# [11] = Matrigel-coated Fluoroblok insert
substance,measurement,setting,value
Yn–Thr(Z)–Ala–Ser(Z)–Phg(4-guan)PP [compound 7],KLK6 kobs/I,[1],43 M^–1 s^–1
Yn–Thr(Z)–Ala–Tyr(Z)–Phg(4-guan)PP [compound 6],KLK6 kobs/I,[1],7 M^–1 s^–1
biotin–Ahx–DPhe–Cha–Dht–ArgPP [compound 16],KLK8 kobs/I,[2],150 M^–1 s^–1
same,KLK6 kobs/I,[1],1300 M^–1 s^–1
biotin–Ahx–DPhe–Cha–Dht–Phg(4-guanPP [compound 11],KLK8 kobs/I,[2],0 M^–1 s^–1
same,KLK6 kobs/I,[1],210 M^–1 s^–1
biotin–Ahx–DPhe–Ser(Z)–Dht–DArgPP [compound 18],effect on proliferation (percentage confluency),[3],no effect
same,KLK6 kobs/I,[1],0 M^–1 s^–1
same,effect on migration,[4]; [10],no effect
same,effect on invasion,[4]; [11],no effect
same,effect on migration,[5]; [10],no effect
same,effect on invasion,[5]; [11],no effect
same,labeling of endogenous KLK6,[6],no KLK6 labeling
biotin–Ahx–Thr(Z)–Cha–Dht–Phg(4-guan)PP [compound 10],KLK8 kobs/I,[2],71 M^–1 s^–1
same,KLK6 kobs/I,[1],420 M^–1 s^–1
biotin–Ahx–DPhe–Lys–Dht–Phg(4-guan)PP [compound 13],KLK6 kobs/I,[1],250 M^–1 s^–1
"Ac-DPhe-Ser(Z)-Dht-Arg-ACC [compound 23, purified fluorogenic substrate for KLK6]",Km,[7],180 µM
biotin–Ahx–DPhe–Cha–Ser(Ac)–Phg(4-guan)PP [compound 15],KLK8 kobs/I,[2],20 M^–1 s^–1
same,KLK6 kobs/I,[1],150 M^–1 s^–1
Yn–Thr(Z)–Ala–Dht–Phg(4-guan)PP [compound 5],KLK6 kobs/I,[1],250 M^–1 s^–1
biotin–Ahx–DhPhe–Cha–Dht–Phg(4-guan)PP [compound 12],KLK8 kobs/I,[2],0 M^–1 s^–1
same,KLK6 kobs/I,[1],140 M^–1 s^–1
Yn–Thr(Z)–Cha–His(Z)–Phg(4-guan)PP [compound 3],KLK6 kobs/I,[1],46 M^–1 s^–1
Yn–Thr(Z)–Ala–Phg–Phg(4-guan)PP [compound 1],KLK6 kobs/I,[1],220 M^–1 s^–1
Z-GGR-AMC,Km,[8],1200 µM
same,Km,[9],190 µM
Yn–DPhe–Ser(Z)–Dht–DArgPP [compound 20],KLK6 kobs/I,[1],0 M^–1 s^–1
biotin–Ahx–DPhe–DLys–Dht–Phg(4-guan)PP [compound 14],KLK8 kobs/I,[2],73 M^–1 s^–1
same,KLK6 kobs/I,[1],550 M^–1 s^–1
biotin–Ahx–Thr(Z)–Ala–Dht–Phg(4-guan)PP [compound 9],KLK6 kobs/I,[1],220 M^–1 s^–1
Yn–Thr(Z)–Ala–Dab(Z)–Phg(4-guan)PP [compound 8],KLK6 kobs/I,[1],11 M^–1 s^–1
Yn–Thr(Z)–Chg–His(Z)–Phg(4-guan)PP [compound 2],KLK6 kobs/I,[1],30 M^–1 s^–1
"Ac-Thr(Z)-Ala-Phg-Arg-ACC [compound 22, purified fluorogenic substrate for KLK6]",Km,[7],86 µM
Yn–Asp(Chx)–Cha–His(Z)–Phg(4-guan)PP [compound 4],KLK6 kobs/I,[1],54 M^–1 s^–1
